According to patent US10472334B2, “Small molecules for inhibiting male fertility” (The University of North Carolina at Chapel Hill, priority 2014, dated 2019):

Tests used:
human spermatozoa [1] = test: Intracellular free calcium in Fluo-4 loaded spermatozoa; format: cell-based
Method: (§1) A series of experiments was performed to determine the mechanism of action of the compounds described herein. The experiments were carried out as described in O'Rand and Widgren, “Loss of Calcium in Human Spermatozoa via EPPIN, the Semenogelin Receptor,” Biology of Reproduction, (2012) 86(2):55, 1-7.
Fluo-4 AM-loaded spermatozoa were pipetted into 96-well black-walled plates (Perkin Elmer, Waltham, Mass.) at 1.13105-0.93105 spermatozoa/well in 50 μl of M16M at 378 C, and read in a BioTek (Winookski, Vt.) Synergy2 Multiplatform automated plate reader (with heater and shaker). Wells were excited using a 485/20 filter, and emission was read with a 528/20 filter, and data were acquired using a kinetic modification of the Alexafluor 488 protocol in the Gen5 software program (BioTek). […] After treatment of spermatozoa in each well with control or test reagents was completed (10-15 min), the Fluo-4 in the spermatozoa in each well was calibrated by adding ionomycin (2.5 μM), followed 15 min later by the addition of Mn^2 (2 mM MnCl2) to bring the fluorescence (F) to 30% of that of the saturated dye. […] Using these values for each well, the Fmax and Fmin were calculated according to the method of Kao et al. [Kao et al., J Biol Chem. 1989; 264:8179-8184.].
Fluorescence measurements were converted to calcium concentration according to the equation [Ca^2+]=Kd([F−Fmin]/[Fmax−F]) […]

human spermatozoa [2] = test: Internal sperm pH detection with BCECF; format: cell-based; conditions: FIG. 6, 10 and 20 μM
Method: as §1
The AM ester derivative of the pH-sensitive dye BCECF (5 μM; Molecular Probes) was used to detect changes in the pH in spermatozoa treated with SEMG1. Spermatozoa were loaded with BCECF-AM for 30 min in bovine serum albumin-free medium, centrifuged to remove extracellular dye, and resuspended in M16M. Changes to 1.13105-0.93105 spermatozoa/well in 50 μl of M16M at 378 C after treatment with 3.2 μM SEMG1 were monitored in a BioTek (Winookski, Vt.) Synergy2 Multiplatform automated plate reader (with heater and shaker); wells were excited using a 485/20 filter and emission read with a 528/20 filter. Fluorescence was read immediately and recorded every 10 sec; readings for each time point were normalized, averaged, and expressed as percentages of decrease in relative fluorescent units. Data from three ejaculate samples are reported.

recombinant human EPPIN = target: T1, recombinant human EPPIN (Homo sapiens, UniProt O95925); test: AlphaScreen epitope assay: inhibition of anti-EPPIN (S21C, C-terminal domain) antibody binding to histidine-tagged recombinant human EPPIN; conditions: Figure 2; TZ4_121 concentration-response, percent of control value vs. log concentration; His-tagged rhEPPIN (E. coli, lacks part of N-terminal secretory signal) on NTA-donor beads, anti-EPPIN S21C on protein A-acceptor beads; spread printed +/- 10.4
T1 construct: His-tagged (FLAG tag also stated); E. coli M15[pREP-4], Ni-NTA purified; AlphaScreen with anti-EPPIN S21C antibody
T1 sequence (O95925 22-133): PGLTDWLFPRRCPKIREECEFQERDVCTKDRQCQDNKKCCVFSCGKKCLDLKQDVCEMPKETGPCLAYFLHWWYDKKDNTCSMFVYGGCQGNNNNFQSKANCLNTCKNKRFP
Text: Two assays for high throughput screening (HTS) of compounds have been established and validated. In one embodiment, these assays are based on an adaptation of the AlphaScreen™ assay developed by PerkinElmer (Waltham, Mass.). In the AlphaScreen™ (amplified luminescent proximity homogeneous assay) assay donor and acceptor beads (˜200 nm) are employed to hold interacting protein molecules. When the interacting protein molecules bind (for example EPPIN {on the donor bead} and anti-EPPIN {on the acceptor bead}), singlet state oxygen molecules diffuse from the donor bead to the acceptor bead (˜4 μsec) and fluorophores subsequently emit light at 520-620 nm. In the primary compound screen, histidine-tagged recombinant human EPPIN is attached to NTA-donor beads and anti-EPPIN (S21C; against the EPPIN C-terminal domain) is attached to protein A-acceptor beads. This epitope specific assay gives strong and stable binding between EPPIN and the antibody. […]

CCOC(=O)CSc1nc(NNC(=O)OC)nc(Nc2ccc(NC(=O)OC)c(O)c2)n1 [TZ4_121, [4-(3-Hydroxy-4-methoxycarbonylamino-phenylamino)-6-(N′methoxycarbonyl-hydrazino)-1,3,5-triazin-2-ylsulfanyl]-acetic acid ethyl ester]
change in intracellular calcium of spermatozoa (human spermatozoa [1]): significant loss of calcium
change in internal sperm pH (human spermatozoa [2]): significant decrease in pH
IC50 (recombinant human EPPIN): 38.2 µM
